Experiment [1] deals with panel of Gram-negative bacteria with different colistin susceptibilities. As to the kind of experiment: Fractional inhibitory concentration index (FICI) checkerboard assay with colistin. In kind it is cell-based. To be noted: for FICI Values of Colistin and Potentiator in Resistant Bacteria: FICI values of ≦0.5 indicate synergy. As for the experimental part:
The fractional inhibitory concentration index (FICI) was determined in combination with colistin using the broth microdilution susceptibility test method as described by the CLSI (Methods for Dilution Antimicrobial Susceptibility Tests for Bacteria That Grow Aerobically; Approved Standard-Ninth Edition. 2012. CLSI document M07-A9. CLIS, 940 West Valley Road, Suite 1400, Wayne, Pa. 19087-1898 USA). This checkerboard assay was set up with decreasing concentrations of colistin across the plate from left to right and decreasing concentrations of potentiator from top to bottom. The FICI values were then calculated using the methods of Lorian et al. (Antibiotics in Laboratory Medicine—Fifth Edition. 2005. Lippincott, Williams, & Wilkins, Philadelphia, Pa.). A panel of Gram-negative bacteria with different colistin susceptibilities were tested.
Each of the tested compounds synergized with colistin in the three species of colistin-resistant bacteria tested.

Experiment [2] deals with Ab23. As to the kind of experiment: Time-kill assay with colistin and potentiator. Set-up: time-kill: concentration of potentiator required for effect: unit not given here. In kind it is cell-based, Acinetobacter baumannii. The note with it: for time-kill: effect on Ab23 cells in the absence of colistin: compound alone (compound III at 10 μM), FIGS. 2-4; for time-kill: effect in the presence of colistin: compound plus colistin, Ab23, FIGS. 2-4. As for the experimental part:
Colistin and potentiator were diluted to 1000× final concentrations in water and DMSO, respectively. Then, 3 μl of the appropriate dilutions were added to culture tubes. An overnight culture of Ab23 was diluted to 10^6 CFU/ml, and 3 mL of cells were added to the tubes. The cultures were incubated at 37° C. in an orbital shaker. An aliquot of the starting inoculum was serially diluted in CAMHB and spread on LB agar plates for CFU determination. At 2, 4, 8, and 24 hours, aliquots were removed from each of the culture tubes, diluted, and spread LB agar plates. The plates were incubated overnight at 37° C. The following day, the number of CFUs on each plate was counted, and the number of bacterial in each culture condition was calculated. Colistin (“C”) was tested at 2 and 8 µg/mL. The select compounds (“P”) were tested at 2 and 10 µg/mL. The dotted line indicates the limit of detection.

Experiment [3] has as its system E. coli. As to the kind of experiment: MIC shift assay of antibiotics (broth microdilution). The experiment is classed as cell-based. To be noted: E. coli (SCR1); compd. concentration 4.0 μM; colistin MIC 0.5-1.0 μg/mL. On the procedure:
Minimum inhibitory concentration (MIC) shift assays were performed to determine if the test compounds could alter the MIC of existing antibacterial drugs (e.g., ciprofloxacin and colistin) for E. coli, Acinetobacter baumannii, Klebsiella pneumoniae, Pseudomonas aeruginosa, and Enterobacter cloacae. The MIC shift assay is based on the standard broth microdilution MIC determination protocol of Wiegand et al, Nat Protoc. 3(2):163-75 (2008), with slight modifications that allow for the screening of up to seven test compounds in a single plate.
On the day before an assay, bacteria were grown overnight in cation-adjusted Mueller Hinton broth (CAMHB; Teknova, Hollister, Calif.) at 37° C. in an orbital shaker and sub-cultured at a 1:200 dilution the following morning. The cells were grown to OD600=0.5 to 0.8 and then diluted to OD600=0.01. From a serial dilution of each antibiotic at (50 μL of 2× concentrated stock solutions) several concentrations were added to the wells of a sterile, transparent round-bottom 96-well plate (Phenix Research Products, Candler, N.C.), and diluted cells (50 μL) were added to the plates for a starting OD600 of 0.005. Then, a test compound (2.5 μL) was added to each well to give a final concentration of 4 or 10 μM. A row of wells lacking test compound but containing the antibiotic was used to determine the MIC of that antibiotic alone. A column of wells lacking both antibiotic and test compound served as a growth control, and an additional column containing only CAMHB was included as a sterile blank control.
The plates were incubated for 18 to 20 h at 37° C. in an orbital shaker, and the cell density (OD600) was determined the following day in a microplate reader (PolarStar Optima, BMG Labtech). The MIC shift was determined by comparing the MIC of the antibiotic alone to the MIC of the antibiotic plus test compound.
A general note: In broth dilution the organism is exposed to a series of concentrations in liquid medium.

The subject of experiment [4] is Acinetobacter baumannii (Ab23). The experiment is described as above. To be noted: for Colistin MIC Shift: A. baumannii (MDR Ab), compd. concentration 4.0 μM, colistin MIC 0.5-1.0 μg/mL; for colistin MIC shift, Ab23 at (compd concentration): compound concentration 2 μM, fold shift of colistin MIC, nc = no changeover or no shift. In kind it is cell-based. Put shortly:
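Broth microdilution MIC shift assay against Acinetobacter baumannii. Overnight cultures in cation-adjusted Mueller Hinton broth at 37° C. were sub-cultured 1:200, grown to OD600=0.5 to 0.8, diluted to OD600=0.01, and added (50 μL) to wells holding 50 μL of 2× antibiotic stocks for a starting OD600 of 0.005. After 18 to 20 h at 37° C. with shaking, OD600 was read to obtain MICs.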

The mark [5] stands for this setting: colistin-resistant A. baumannii.
Where [6] appears, read: colistin-resistant K. pneumoniae.
Where [7] appears, read: colistin-resistant P. aeruginosa.

Each structure is given as a SMILES string.

As to `Clc1ccc(/C=C/c2c[nH]c3ccc(Br)cc23)cc1Cl` [compound I], in experiment [1] (setting [5]), the “MIC Shift of Colistin and Potentiator in Resistant Bacteria” value (from here on “MIC Shift of Colistin and Potentiator”) came out at 133 x; the “FICI Values of Colistin and Potentiator in Resistant Bacteria” value (from here on “FICI Values of Colistin and Potentiator”) was 0.25. In experiment [1] (setting [6]), the “MIC Shift of Colistin and Potentiator” value came to 64 x; the “FICI Values of Colistin and Potentiator” value amounted to 0.30. For the same molecule, in experiment [1] (setting [7]), the “MIC Shift of Colistin and Potentiator” value was 16 x; the “FICI Values of Colistin and Potentiator” value was determined as 0.26. For the same molecule, in experiment [2], the “time-kill: effect on Ab23 cells in the absence of colistin” value (“time-kill: effect on Ab23 cells” below) is listed as “had no effect on the cells” and the “time-kill: effect in the presence of colistin” value was “potent synergists of colistin”. The “time-kill: concentration of potentiator required for effect” value in experiment [2] (in combination with colistin, Ab23, FIG. 2) is reported as 2.

With `FC(F)(F)c1ccc2c(-c3ccc(Cl)c(Cl)c3)n[nH]c2c1` [compound II], in experiment [1] (setting [5]), the “MIC Shift of Colistin and Potentiator” value turned out to be 267 x; the “FICI Values of Colistin and Potentiator” value was found to be 0.15. In addition, in experiment [1] (setting [6]), the “MIC Shift of Colistin and Potentiator” value stood at 32 x; the “FICI Values of Colistin and Potentiator” value was 0.39. In experiment [1] (setting [7]), the “MIC Shift of Colistin and Potentiator” value was 16 x; the “FICI Values of Colistin and Potentiator” value was 0.26. In experiment [2], the “time-kill: effect on Ab23 cells” value is given as “had no effect on the cells” and the “time-kill: effect in the presence of colistin” value was “potent synergists of colistin”.

As to `Cc1cccc2c(NCCCN(C)C)nc(-c3cc(Br)cc(C(F)(F)F)c3)nc12` [compound 353], the “Colistin MIC Shift” value in experiment [3] and in experiment [4] was 8x in each case. Moreover, the “colistin MIC shift, Ab23 at (compd concentration)” value (“colistin MIC shift, Ab23” for short) in experiment [4] is recorded as 8-16x.

Turning to `NCC(=O)n1cc(-c2ccc(Cl)c(Cl)c2)c2cc(Cl)ccc21` [compound 360], the “Colistin MIC Shift” value in experiment [3] is recorded as 4x. Besides, in experiment [4], the “Colistin MIC Shift” value was 4x and the “colistin MIC shift, Ab23” value is 16x.

Regarding `CNCCCN(C)c1nc(-c2cc(Br)cc(C(F)(F)F)c2)nc2c(C)cccc12` [compound 342], the “Colistin MIC Shift” value in experiment [3] and in experiment [4] was 8x in each case. In addition, in experiment [4], the “colistin MIC shift, Ab23” value is on record as 8-16x.

As to `Cc1cccc2c(NCCN(C)C)nc(-c3cc(Br)cc(C(F)(F)F)c3)nc12` [compound 345], the “Colistin MIC Shift” value in experiment [3] worked out at 16x. In experiment [4], the “Colistin MIC Shift” value is on record as 4x and the “colistin MIC shift, Ab23” value was 8-16x.

In the case of `CN(C)CCCNc1nc(-c2cc(Br)cc(C(F)(F)F)c2)nc2c(Cl)cccc12` [compound 337], the “Colistin MIC Shift” value in experiment [3] is given as 4x. Moreover, in experiment [4], the “Colistin MIC Shift” value worked out at 4x and the “colistin MIC shift, Ab23” value was 8-16x.

Turning to `CN(C)CCCNc1nc(/C=C/c2ccc(Cl)c(Cl)c2)nc2c(C(F)(F)F)cccc12` [compound III], the “MIC Shift of Colistin and Potentiator” value was 133 x in experiment [1] (setting [5]), 533 x in experiment [1] (setting [6]) and 33 x in experiment [1] (setting [7]). Further, the “FICI Values of Colistin and Potentiator” value in experiment [1] (setting [5]) is reported as 0.21; in experiment [1] (setting [6]), 0.17; in experiment [1] (setting [7]), 0.19. For the same molecule, in experiment [2], the “time-kill: effect on Ab23 cells” value is “reduced Ab23 in two hours, although the effect was not sustained”. For the same molecule, the “time-kill: effect in the presence of colistin” value in experiment [2] was “potent synergists of colistin”.

For the origin of these results see patent US20160168140A1, “HETEROCYCLIC COMPOUNDS AS ANTIBIOTIC POTENTIATORS” (priority 2014, published 2016).
